Measurements from article PMC8626469, “Helicobacter pylori FabX contains a [4Fe-4S] cluster essential for unsaturated fatty acid synthesis” (Nature Communications, 2021).

Molecular target: T1, FabX (Helicobacter pylori, UniProt A0A0B2E3F3)
T1 construct: gene C2842_03950; full length, 363 residues; expressed in E. coli BL21(DE3) Rosetta; monomer in the asymmetric unit; holds FMN and a [4Fe-4S] cluster
T1 sequence (A0A0B2E3F3 1-363): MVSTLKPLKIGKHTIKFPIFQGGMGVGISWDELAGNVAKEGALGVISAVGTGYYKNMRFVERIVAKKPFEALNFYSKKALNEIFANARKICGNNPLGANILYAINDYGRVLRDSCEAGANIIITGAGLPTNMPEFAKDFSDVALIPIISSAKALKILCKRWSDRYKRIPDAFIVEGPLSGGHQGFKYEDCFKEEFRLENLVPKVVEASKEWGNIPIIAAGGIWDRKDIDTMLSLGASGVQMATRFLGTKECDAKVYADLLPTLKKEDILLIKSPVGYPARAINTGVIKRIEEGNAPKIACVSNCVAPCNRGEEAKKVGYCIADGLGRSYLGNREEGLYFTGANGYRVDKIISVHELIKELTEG
Test: X-ray crystal structure, […] Å
Type: binding
Settings: noncovalent in TIM-barrel core; also present in complexes with holo-ACP and octanoyl-ACP

Cc1cc2nc3c(=O)[nH]c(=O)nc-3n(C[C@H](O)[C@H](O)[C@H](O)COP(=O)(O)O)c2cc1C [FMN]
X-ray crystal structure, 1.7 Å: a FMN molecule is noncovalently bound inside the core
